This note sets out measurements from PMC10385282, “Luteolin Protects Pancreatic β Cells against Apoptosis through Regulation of Autophagy and ROS Clearance” (Pharmaceuticals, 2023).

For the assay, the target named is T1, Drak2 (death-associated protein kinase-related apoptosis-inducing kinase-2) (Homo sapiens, UniProt O94768).
T1 construct: gene STK17B
T1 sequence (O94768 1-372): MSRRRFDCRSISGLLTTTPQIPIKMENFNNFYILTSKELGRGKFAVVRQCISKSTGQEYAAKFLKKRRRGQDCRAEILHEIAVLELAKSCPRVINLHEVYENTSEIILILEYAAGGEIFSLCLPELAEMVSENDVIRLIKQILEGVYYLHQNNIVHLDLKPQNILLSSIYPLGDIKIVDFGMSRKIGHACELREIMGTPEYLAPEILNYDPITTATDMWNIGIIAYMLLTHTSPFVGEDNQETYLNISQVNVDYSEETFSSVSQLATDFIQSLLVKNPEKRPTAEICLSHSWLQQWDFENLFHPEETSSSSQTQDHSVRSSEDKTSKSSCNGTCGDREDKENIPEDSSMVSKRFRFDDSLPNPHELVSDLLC
In words: biochemical. Also noted: ADP-Glo kinase assay, luminescence, residual Drak2 activity at 20 uM compound. Conditions: read-out: % of control remaining. How it is done:
ADP-Glo kits (Promega, Madison, WI; #V6903) were used for Drak2 inhibitor screening. Drak2 activity was measured and calculated from the amount of ADP generated from the enzyme reaction. The compounds were dissolved in DMSO and diluted to the indicated concentration for the screening assay. Drak2 and substrate ATP were diluted in 1X Buffer (HEPES 50 mM (pH 7.0), NaN3 0.02%, Orthovanadate 0.1 mM, 5 mM MgCl2, 0.01% (w/v) bovine serum albumin). The 5 µL kinase reaction was performed using 1X kinase buffer that contained 1 μL of compound, 2 μL of Drak2 (160 nM) and 2 μL of substrate ATP (20 μM), and incubated for 2 h at room temperature. Then, 2.5 μL of ADP-Glo™ Reagent was added to each reaction and incubated for 2 h at room temperature to deplete the remaining ATP. Finally, 5 μL of Kinase Detection Reagent was added to each reaction to convert ADP to ATP via the luciferase reaction, which was detected using an EnVision multilabel plate reader. 22b was used as a positive control in the assay. Our previous work validated that Drak2 inhibitors can prevent pancreatic β cells from undergoing lipotoxicity-induced cell apoptosis. Therefore, we established a kinase activity detection assay in vitro using the ADP-Glo^TM Kinase Assay kit (Promega, Madison, WI, USA) and screened the Natural Product and Derivatives Focus Library to identify small molecules that can inhibit Drak2 activity. […]

Turning to `O=c1cc(-c2ccc(O)c(O)c2)oc2cc(O)cc(O)c12` [luteolin], the remaining activity at 20 µM came out at 7.74 ± 1.75%.
